Measured values taken from patent US10022421B2, “Treatment of primary and metastatic carcinoma” (Spectrum Pharmaceuticals Inc., priority 2012, dated 2018).
Numbered stars: 1 amine (or outer) side, 2 acyl side, 3 side chain; on linkers, the order of the positions; unused ones are H or OH. Ends that are not written are not given here. Suc = O=C(CCC(=O)[*:2])[*:1]

What was measured:
[1] = tested on: progressive or recurrent carcinoma; assay: Open label, single arm, dose escalation study of IRL-1620 in combination with docetaxel: anti-tumor activity; type: in vivo, human
From the text: Patient characteristics were as follows.
CT or MRI scans are used to assess the patient's tumor size. A series of dynamic contrast enhancer pattern MRI scans are used to measure any increases in blood flow induced by IRL 1620.

[2] = tested on: blood flow in tumor and non-tumor regions; assay: H2^15O PET Blood Flow scans after IRL-1620; type: in vivo, human; conditions: patients, PET blood flow scans on Day 8
[3] = 30 patients, IRL-1620 with docetaxel
[4] = previously docetaxel treated prostate cancer patient

Substance: N-Succunyl-[Glu^9, Ala^11,15] Endothelin-1 (8-21) (Suc-DEEAVYFAHLDIIW) [IRL-1620, ETB receptor agonist]
- time on study of patients with prolonged clinical benefit ([1]; 4 cases, IRL-1620 with docetaxel): 20-74 weeks
- cases of prolonged clinical benefit [1, 3]: 4 cases
- cases of stable disease [1, 3]: 5 cases
- prolonged clinical benefit rate [1, 3]: 13%
- stable disease (SD) rate [1, 3]: 16%
- anti-tumor activity ([1]; docetaxel-pretreated patients): Anti-tumor activity was seen
- time to complete regression of lung metastasis ([1]; one patient with cholangiocarcinoma): ≤ 3 months
- time on study before progressing ([1]; one patient with cholangiocarcinoma, complete regression of lung metastasis): 41 weeks
- discontinuation of the study due to disease progression ([1]; patients, IRL-1620 with docetaxel): 84%
- PSA response [1, 4]: PSA response
- change in metastatic prostate cancer [1, 4]: measurable decrease
- changes in blood flow [2]: did not result in any measurable changes
